Experimental data as given in patent US4347361A, “4,5α-Epoxy-3-hydroxy or methoxy-7-(1-hydroxy-alkyl or 1-oxoalkyl)morphinan-6-one compounds” (SISA, Incorporated, priority 1980, dated 1982).

Tests used:
[1] = test system: male albino Wistar rats (morphine effect, tail flick); assay: narcotic antagonist activity, modified rat tail flick test (inhibition of morphine effect); format: in vivo; details: intraperitoneal; for AD50: X%(Y) / AD50: Ia at dose: vs ED80 morphine; for ED50: ip, 10 min before ED80 dose of morphine s.c., read-out: AD50 (dose required to inhibit the morphine effect by 50%); for AD50: Ia at dose: at 10 (mg/kg), Ia not defined
Procedure: (B) Narcotic antagonist activity in rats (modified rat tail flick test).
The narcotic antagonist effects of test compounds were determined by a modification of the rat tail flick procedure of Harris and Pierson, J. Pharmacol. Exp. Ther. 143:141 (1964).
Male albino Wistar rats (100-120 g.) were used for this study. A rat's tail is so placed so as to cover a photocell. Heat is applied by a lamp in a reflector with a timer being connected to the lamp and photocell so that the timer goes on when the light is turned on and is turned off when the photocell is uncovered. A rheostat, incorporated into a heating lamp is used to adjust the intensity of the light falling on the tail of the rat such that the rat's control reaction time is from 1.2 to 5.8 seconds. Animals with a control reaction time outside this range are rejected. The rheostat adjustment is made only if a significant proportion (more than 1 out of every 10 rats) of the reaction times are outside the range of 1.2 to 5.8 seconds. Groups of five rats were used each time, and two control times were determined at least 30 minutes apart.
The test drug was given intraperitoneally and this was followed ten minutes later by an ED80 dose of morphine subcutaneously. The animals were retested at 20 minutes after the morphine injection. Control animals were given morphine only. […] The data were calculated as follows: [formula]
The data were plotted on log-probit paper and AD50 values, i.e., the dose required to inhibit the morphine effect by 50% within 95% confidence limits, were determined by the method of Litchfield and Wilcoxon.

[2] = test system: male CD-1 mice (acetic acid writhing); assay: acetic acid mouse writhing test (analgesic effects); format: in vivo, mice (male CD-1); details: subcutaneous; for ED50: Ia at dose: at 10 (mg/kg), Ia not defined; for ED50: sc, 0.25 h, acetic acid i.p. 15 min post drug, read-out: ED50 (dose required to reduce the number of writhes by 50%); for % reduction of number of writhes (ED50 column, X%(Y)): at 10 mg/kg
Procedure: (A) Analgesic effects upon mice (acetic acid writhing test).
The analgesic effects of test compounds were determined in mice by use of the acetic acid writhing test described by B. A. Whittle, Brit. J. Pharmacol., 22:246 (1964). In this test at least three groups of five male CD-1 mice each were given subcutaneous doses of the test drug dissolved in either distilled water or distilled water acidified with HCl depending on the solubility of the compound. Fifteen (15) minutes post drug, 0.4 milliliter of a 0.75% or 1.0% or 0.6 milliliter of a 1.0% V/V acetic acid in distilled water solution was administered intraperitoneally. The number of writhes in a 20 minute interval beginning 5 minutes after the acetic acid injection were determined and compared with the number of writhes in control groups which had received only acetic acid.
Percent inhibition of writhing was calculated as: [formula]
The ED50 dose, i.e., the dose required to reduce the number of writhes by 50%, was determined graphically from a plot of % inhibition as a probit versus log dose. Confidence limits of 95% were calculated on the basis of those results falling in the range 16-84% inhibition. See Litchfield, J. T. and Wilcoxon, F., J. Pharmacol. Exp. Ther., 96:99, (1949).

Structure (SMILES)	ED50 [1]	ED50 [2]	further results
COc1ccc2c3c1O[C@H]1C(=O)C(C(=O)C(C)(C)C)C[C@H]4[C@@H](C2)N(CC2CC2)CC[C@]314 (stereo partly drawn) [TR-5571]			AD50: X%(Y) ([1]; at 10 mg/kg): 13%; ED50: Ia at dose [2]: Ia
CCC(=O)C1C[C@H]2[C@H]3Cc4ccc(O)c5c4[C@@]2(CCN3CC2CC2)[C@@H](O5)C1=O (stereo partly drawn) [TR-5573]	0.51 mg/kg		ED50: Ia at dose [2]: Ia
O=C(c1ccccc1)C1C[C@H]2[C@H]3Cc4ccc(O)c5c4[C@@]2(CCN3CC2CC2)[C@@H](O5)C1=O (stereo partly drawn) [TR-5506]	0.24 mg/kg	4.35 mg/kg	
CCCCCC(C)(O)C1C[C@H]2[C@H]3Cc4ccc(O)c5c4[C@@]2(CCN3CC2CC2)[C@@H](O5)C1=O (stereo partly drawn) [TR-5538]	6.6 mg/kg	0.28 mg/kg	
CC(=O)C1C[C@H]2[C@H]3Cc4ccc(O)c5c4[C@@]2(CCN3CC2CC2)[C@@H](O5)C1=O (stereo partly drawn) [TR-5475]	1.3 mg/kg	4.05 mg/kg	
CCCC(=O)C1C[C@H]2[C@H]3Cc4ccc(OC)c5c4[C@@]2(CCN3CC2CC2)[C@@H](O5)C1=O (stereo partly drawn) [TR-5464]	8.1 mg/kg	2.81 mg/kg	
CC(C)(C)CC(=O)C1C[C@H]2[C@H]3Cc4ccc(O)c5c4[C@@]2(CCN3CC2CC2)[C@@H](O5)C1=O (stereo partly drawn) [TR-5574]	> 10 mg/kg		ED50: Ia at dose [2]: Ia
COc1ccc2c3c1O[C@H]1C(=O)C(C(=O)CCCc4ccccc4)C[C@H]4[C@@H](C2)N(C)CC[C@]314 (stereo partly drawn) [MLS-5683, 7-(4-Phenylbutyroyl)Dihydrocodeinone]		0.41 mg/kg	
COc1ccc2c3c1O[C@H]1C(=O)C(C(C)=O)C[C@H]4[C@@H](C2)N(CC2CC2)CC[C@]314 (stereo partly drawn) [TR-5463]			AD50: Ia at dose [1]: Ia; % reduction of number of writhes (ED50 column, X%(Y)) [2]: 9%
CN1CC[C@]23c4c5ccc(O)c4O[C@H]2C(=O)C(C(=O)CCCc2ccccc2)C[C@H]3[C@H]1C5 (stereo partly drawn) [MLS-5691, 7-(4-Phenylbutyroyl)Dihydromorphone]		0.0052 mg/kg	
COc1ccc2c3c1O[C@H]1C(=O)C(C(=O)c4ccc(F)cc4)C[C@H]4[C@@H](C2)N(CC2CC2)CC[C@]314 (stereo partly drawn) [TR-5575]			AD50: X%(Y) ([1]; at 10 mg/kg): 17%; ED50: Ia at dose [2]: Ia
CCCCCC(C)(O)C1C[C@H]2[C@H]3Cc4ccc(O)c5c4[C@@]2(CCN3C)[C@@H](O5)C1=O (stereo partly drawn) [MLS-5694]		2.9 mg/kg	
CCCCCC(=O)C1C[C@H]2[C@H]3Cc4ccc(OC)c5c4[C@@]2(CCN3C)[C@@H](O5)C1=O (stereo partly drawn) [MLS-5682]		4 mg/kg	
CCCCC(C)(O)C1C[C@H]2[C@H]3Cc4ccc(OC)c5c4[C@@]2(CCN3CC2CC2)[C@@H](O5)C1=O (stereo partly drawn) [TR-5544]			AD50: Ia at dose [1]: Ia; % reduction of number of writhes (ED50 column, X%(Y)) [2]: 10%
CC(C)C(C)(O)C1C[C@H]2[C@H]3Cc4ccc(O)c5c4[C@@]2(CCN3CC2CC2)[C@@H](O5)C1=O (stereo partly drawn) [TR-5572]	2.2 mg/kg	7.8 mg/kg	
O=C(c1ccc(F)cc1)C1C[C@H]2[C@H]3Cc4ccc(O)c5c4[C@@]2(CCN3CC2CC2)[C@@H](O5)C1=O (stereo partly drawn) [TR-5579]			AD50: X%(Y) ([1]; at 10 mg/kg): 45%; % reduction of number of writhes (ED50 column, X%(Y)) [2]: 29%
CCCCC(C)(O)C1C[C@H]2[C@H]3Cc4ccc(O)c5c4[C@@]2(CCN3CC2CC2)[C@@H](O5)C1=O (stereo partly drawn) [TR-5551]	2.5 mg/kg		% reduction of number of writhes (ED50 column, X%(Y)) [2]: 40%
CCCCC(=O)C1C[C@H]2[C@H]3Cc4ccc(OC)c5c4[C@@]2(CCN3CC2CC2)[C@@H](O5)C1=O (stereo partly drawn) [TR-5519]		> 10 mg/kg	AD50: Ia at dose [1]: Ia
CCCCCC(=O)C1C[C@H]2[C@H]3Cc4ccc(O)c5c4[C@@]2(CCN3C)[C@@H](O5)C1=O (stereo partly drawn) [MLS-5689]		0.76 mg/kg	

Structure (SMILES)	ED50 [1]	ED50 [2]	further results
CN1CC[C@]23c4c5ccc(O)c4O[C@H]2C(=O)C(C(=O)CCc2ccccc2)C[C@H]3[C@H]1C5 (stereo partly drawn) [MLS-5690]		0.105 mg/kg	
CCCC(C)(O)C1C[C@H]2[C@H]3Cc4ccc(OC)c5c4[C@@]2(CCN3CC2CC2)[C@@H](O5)C1=O (stereo partly drawn) [TR-5499]		0.42 mg/kg	AD50: X%(Y) ([1]; at 7 mg/kg): 12%
COc1ccc2c3c1O[C@H]1C(=O)C(C(=O)CCc4ccccc4)C[C@H]4[C@@H](C2)N(C)CC[C@]314 (stereo partly drawn) [MLS-5688H]		0.62 mg/kg	
COc1ccc2c3c1O[C@H]1C(=O)C(C(C)(C)O)C[C@H]4[C@@H](C2)N(C)CC[C@]314 (stereo partly drawn) [TR-5492]		4.5 mg/kg	
CCCC(C)(O)C1C[C@H]2[C@H]3Cc4ccc(O)c5c4[C@@]2(CCN3CC2CC2)[C@@H](O5)C1=O (stereo partly drawn) [TR-5543, 17-cyclopropylmethyl-4,5α-epoxy-3-hydroxy-7-(1-hydroxy-1-methylbutyl)morphinan-6-one]	2.8 mg/kg	1.8 mg/kg	
CCCCCC(=O)C1C[C@H]2[C@H]3Cc4ccc(O)c5c4[C@@]2(CCN3CC2CC2)[C@@H](O5)C1=O (stereo partly drawn) [TR-5505]	22 mg/kg	0.29 mg/kg	
COc1ccc2c3c1O[C@H]1C(=O)C(C(=O)c4ccccc4)C[C@H]4[C@@H](C2)N(CC2CC2)CC[C@]314 (stereo partly drawn) [TR-5501]	8 mg/kg	11.3 mg/kg	
CCCC(=O)C1C[C@H]2[C@H]3Cc4ccc(O)c5c4[C@@]2(CCN3CC2CC2)[C@@H](O5)C1=O (stereo partly drawn) [TR-5476, 17-cyclopropylmethyl-4,5α-epoxy-3-hydroxy-7-butanoylmorphinan-6-one]	2.55 mg/kg	4.65 mg/kg	
COc1ccc2c3c1O[C@H]1C(=O)C(C(=O)C(C)C)C[C@H]4[C@@H](C2)N(CC2CC2)CC[C@]314 (stereo partly drawn) [TR-5509]	2.8 mg/kg	7.5 mg/kg	
COc1ccc2c3c1O[C@H]1C(=O)C(C(=O)Cc4ccccc4)C[C@H]4[C@@H](C2)N(CC2CC2)CC[C@]314 (stereo partly drawn) [TR-5577]			AD50: Ia at dose [1]: Ia; % reduction of number of writhes (ED50 column, X%(Y)) [2]: 21%
CCCCCCC(=O)C1C[C@H]2[C@H]3Cc4ccc(O)c5c4[C@@]2(CCN3CC2CC2)[C@@H](O5)C1=O (stereo partly drawn) [TR-5540]		0.4 mg/kg	AD50: Ia at dose [1]: Ia
CCCC(=O)C1C[C@H]2[C@H]3Cc4ccc(O)c5c4[C@@]2(CCN3C)[C@@H](O5)C1=O (stereo partly drawn) [MLS-5695]		5.25 mg/kg	
CC(C)C(=O)C1C[C@H]2[C@H]3Cc4ccc(O)c5c4[C@@]2(CCN3CC2CC2)[C@@H](O5)C1=O (stereo partly drawn) [TR-5511]	0.81 mg/kg	> 10 mg/kg	
CCCCCC(=O)C1C[C@H]2[C@H]3Cc4ccc(OC)c5c4[C@@]2(CCN3CC2CC2)[C@@H](O5)C1=O (stereo partly drawn) [TR-5504]		5.7 mg/kg	AD50: Ia at dose [1]: Ia
CCCCCCC(=O)C1C[C@H]2[C@H]3Cc4ccc(OC)c5c4[C@@]2(CCN3CC2CC2)[C@@H](O5)C1=O (stereo partly drawn) [TR-5539]	> 10 mg/kg	> 10 mg/kg	
COc1ccc2c3c1O[C@H]1C(=O)C(C(C)(C)O)C[C@H]4[C@@H](C2)N(CC2CC2)CC[C@]314 (stereo partly drawn) [TR-5479]			AD50: X%(Y) ([1]; at 10 mg/kg): 41%; ED50: Ia at dose [2]: Ia
CCCC(=O)C1C[C@H]2[C@H]3Cc4ccc(OC)c5c4[C@@]2(CCN3C)[C@@H](O5)C1=O (stereo partly drawn) [MLS-5692]			ED50: Ia at dose [2]: Ia
CCC(=O)C1C[C@H]2[C@H]3Cc4ccc(OC)c5c4[C@@]2(CCN3CC2CC2)[C@@H](O5)C1=O (stereo partly drawn) [TR-5570]	6.5 mg/kg		% reduction of number of writhes (ED50 column, X%(Y)) [2]: 11%
CCCCC(=O)C1C[C@H]2[C@H]3Cc4ccc(O)c5c4[C@@]2(CCN3CC2CC2)[C@@H](O5)C1=O (stereo partly drawn) [TR-5520]		1.59 mg/kg	AD50: X%(Y) ([1]; at 10 mg/kg): 77%
